Measurements as given in patent US20080188447A1, “Glucocorticoid-lowering composition” (priority 2007, published 2008).

Experiment: Daily food intake with subcutaneous steroid supplementation (Example 3)
Format: in vivo, rat
Settings: group C (oral corn oil vehicle, no extract), steroid 5 mg/kg/day sc on days 4 and 5
Procedure: Male Wistar rats weighing about 250 g (2 groups designated as group C, control; and E, experimental treatment; 24 individuals per group) were kept as described in the Example 1 from day 1 to day 6 of the experiment. On days 1 through 4, a botanical extract from a plant Asclepias incarnata enriched with pregnane derivatives according to Formula (I) was administered orally in doses of 100 mg/kg body weight/day in 1 ml of corn oil (Sigma #C8267). As a negative control (vehicle), animals were administered orally with 1 ml of corn oil alone. On day 4 of the experiment both groups of animals C and E were further subdivided into 6 groups containing 4 animals each, designated C, control; PREG, pregnenolone; PROG, progesterone; DEOX, deoxycorticosterone; CORT, corticosterone; and DHEA, dehydroepiandrosterone. On day 4 and day 5, animals from these subgroups received a subcutaneous injection of 5 mg/kg body weight/day of the respective steroid compound in 5% DMSO and corn oil; total volume of 0.1 ml. The control animals in group C subgroup C and group E subgroup C received a subcutaneous injection of vehicle (5% DMSO in corn oil) only. On days 4 and 6 food intake was measured. […]

For C[C@]12C[C@H](O)[C@H]3[C@@H](CCC4=CC(=O)CC[C@@]43C)[C@@H]1CC[C@@H]2C(=O)CO [CORT, corticosterone], the “Daily food intake, Day 6” value was “no direct effect on food intake alone”.
